For 21 molecules, inhibition of neutrophilia results are on record in patent US20100144755A1 (Glaxo Group Limited, priority 2006, published 2010).

SMILES strings stand for the structures.

The test has as its system influx of neutrophils to the lung in LPS-challenged rats. The test is described as follows: Rat LPS neutrophilia model. As to conditions: LPS aerosol, intratracheal dosing, in at least one of the range of conditions tested, significance p<0.05. Format: in vivo. Here is the method:
Rat LPS Neutrophilia Model
The effect of compounds on the influx of neutrophils to the lung in LPS-challenged rats is evaluated as follows. The test compound is suspended in one of the following solutions: 0.5% tween 80/PBS, 0.5% tween 80/saline, 10% EtOH/saline (with pH adjusted to 2.0, or 8.0 with HCl, or unadjusted), Saline @pH 2.0, 6.5 or 8.0, 0.5% Tragacanth, 1% DMSO/20% Encapsin/Saline, or acidified 5% Tragacanth. The suspension process may be aided by the use of a glass homogenizer. For intratracheal administration, the animals are anesthetized with inhaled isoflurane and placed in a supine position, the trachea is intubated with a steel gavage needle (1.5 inch, 22 gauge, small ball) or a Penn-Century Microsprayer Aerosolizer (model IA-1B) and 200 ul of dosing solution is delivered. The animals are visually monitored during the recovery process, which typically occurs within two minutes. It is noted that the test compounds may be alternatively administered via the microsprayer in a dry powder blend with a suitable excipient, such as lactose.
Rats treated with compound or vehicle (15 min-24 hours pretreatment) are exposed to an LPS aerosol (100 ug/ml) for 15 min. Four hours later the rats are euthanized with pentobarbital (100 mg/kg, i.p.) and the airways are lavaged with 5 washes of 5 ml of phosphate buffered saline. The harvested cells are stained (Diffquick) and counted to determine total and differential cell data. […] Inhibition of neutrophil levels relative to no compound controls is calculated based on the differential counts.
The data is obtained as % inhibition using a particular concentration and pretreat time.
In the case of `Cc1ccc(C(=O)Nc2ccc(F)cc2)cc1-c1nc(NC2CC(C)(C)NC(C)(C)C2)nc2c1ccc(=O)n2-c1c(F)cccc1F` [Example 66, 3-{8-(2,6-difluorophenyl)-7-oxo-2-[(2,2,6,6-tetramethyl-4-piperidinyl)amino]-7,8-dihydropyrido[2,3-d]pyrimidin-4-yl}-N-(4-fluorophenyl)-4-methylbenzamide], the inhibition of neutrophilia result is on record as “statistically significant inhibition”.
Take `Cc1ccc(C(=O)Nc2nccs2)cc1-c1nc(NC2CC(C)(C)NC(C)(C)C2)nc2c1ccc(=O)n2-c1c(F)cccc1F` [Example 67, 3-{8-(2,6-difluorophenyl)-7-oxo-2-[(2,2,6,6-tetramethyl-4-piperidinyl)amino]-7,8-dihydropyrido[2,3-d]pyrimidin-4-yl}-4-methyl-N-1,3-thiazol-2-ylbenzamide]: the inhibition of neutrophilia result is listed as “statistically nonsignificant inhibition”.
For `Cc1ccc(C(=O)NC(C)C)cc1-c1nc(N2CCC(N)CC2)nc2c1ccc(=O)n2-c1c(F)cccc1F` [Example 68, 3-[2-(4-amino-1-piperidinyl)-8-(2,6-difluorophenyl)-7-oxo-7,8-dihydropyrido[2,3-d]pyrimidin-4-yl]-4-methyl-N-(1-methylethyl)benzamide] the value was “statistically significant inhibition”; for `CCCNC(=O)c1ccc(C)c(-c2nc(N3CCC(N)CC3)nc3c2ccc(=O)n3-c2c(F)cccc2F)c1` [Example 69, 3-[2-(4-amino-1-piperidinyl)-8-(2,6-difluorophenyl)-7-oxo-7,8-dihydropyrido[2,3-d]pyrimidin-4-yl]-4-methyl-N-propylbenzamide], “statistically significant inhibition”; for `Cc1ccc(C(=O)NC2CCCC2)cc1-c1nc(N2CCC(N)CC2)nc2c1ccc(=O)n2-c1c(F)cccc1F` [Example 70, 3-[2-(4-amino-1-piperidinyl)-8-(2,6-difluorophenyl)-7-oxo-7,8-dihydropyrido[2,3-d]pyrimidin-4-yl]-N-cyclopentyl-4-methylbenzamide], “statistically nonsignificant inhibition”.
For `Cc1ccc(C(=O)NCc2ccccc2)cc1-c1nc(N2CCC(N)CC2)nc2c1ccc(=O)n2-c1c(F)cccc1F` [Example 71, 3-[2-(4-amino-1-piperidinyl)-8-(2,6-difluorophenyl)-7-oxo-7,8-dihydropyrido[2,3-d]pyrimidin-4-yl]-4-methyl-N-(phenylmethyl)benzamide] the value was “statistically nonsignificant inhibition”.
For `Cc1ccc(C(=O)Nc2ccc(F)cc2)cc1-c1nc(N2CCC(N)CC2)nc2c1ccc(=O)n2-c1c(F)cccc1F` [Example 72, 3-[2-(4-amino-1-piperidinyl)-8-(2,6-difluorophenyl)-7-oxo-7,8-dihydropyrido[2,3-d]pyrimidin-4-yl]-N-(4-fluorophenyl)-4-methylbenzamide] the value was “statistically significant inhibition”; for `Cc1ccc(C(=O)Nc2nccs2)cc1-c1nc(N2CCC(N)CC2)nc2c1ccc(=O)n2-c1c(F)cccc1F` [Example 73, 3-[2-(4-amino-1-piperidinyl)-8-(2,6-difluorophenyl)-7-oxo-7,8-dihydropyrido[2,3-d]pyrimidin-4-yl]-4-methyl-N-1,3-thiazol-2-ylbenzamide], “statistically significant inhibition”; for `Cc1ccc(C(=O)NC2CCCC2)cc1-c1nc(NCc2ncc[nH]2)nc2c1ccc(=O)n2-c1c(F)cccc1F` [Example 76, N-cyclopentyl-3-{8-(2,6-difluorophenyl)-2-[(1H-imidazol-2-ylmethyl)amino]-7-oxo-7,8-dihydropyrido[2,3-d]pyrimidin-4-yl}-4-methylbenzamide], “statistically nonsignificant inhibition”.
`Cc1ccc(C(=O)NCc2ccccc2)cc1-c1nc(NCc2ncc[nH]2)nc2c1ccc(=O)n2-c1c(F)cccc1F` [Example 77, 3-{8-(2,6-difluorophenyl)-2-[(1H-imidazol-2-ylmethyl)amino]-7-oxo-7,8-dihydropyrido[2,3-d]pyrimidin-4-yl}-4-methyl-N-(phenylmethyl)benzamide]: the inhibition of neutrophilia result is reported as “statistically significant inhibition”.
Turning to `Cc1ccc(C(=O)Nc2ccc(F)cc2)cc1-c1nc(NCc2ncc[nH]2)nc2c1ccc(=O)n2-c1c(F)cccc1F` [Example 78, 3-{8-(2,6-difluorophenyl)-2-[(1H-imidazol-2-ylmethyl)amino]-7-oxo-7,8-dihydropyrido[2,3-d]pyrimidin-4-yl}-N-(4-fluorophenyl)-4-methylbenzamide], the inhibition of neutrophilia result was “statistically significant inhibition”.
For `Cc1ccc(C(=O)Nc2ccc(F)cc2)cc1-c1nc(NCCN(C)C(=O)OC(C)(C)C)nc2c1ccc(=O)n2-c1c(F)cccc1F` [Example 95, 1,1-dimethylethyl(2-{[8-(2,6-difluorophenyl)-4-(5-{[(4-fluorophenyl)amino]carbonyl}-2-methylphenyl)-7-oxo-7,8-dihydropyrido[2,3-d]pyrimidin-2-yl]amino}ethyl)methylcarbamate] the value was “statistically nonsignificant inhibition”.
Consider `Cc1ccc(C(=O)Nc2ccc(F)cc2)cc1-c1nc(N(C)CCN(C)C)nc2c1ccc(=O)n2-c1c(F)cccc1F` [Example 99, 3-{8-(2,6-difluorophenyl)-2-[[2-(dimethylamino)ethyl](methyl)amino]-7-oxo-7,8-dihydropyrido[2,3-d]pyrimidin-4-yl}-N-(4-fluorophenyl)-4-methylbenzamide], for which the inhibition of neutrophilia result is listed as “statistically nonsignificant inhibition”.
Consider `Cc1ccc(C(=O)Nc2nccs2)cc1-c1nc(NCCCNC(C)C)nc2c1ccc(=O)n2-c1c(F)cccc1F` [Example 101, 3-[8-(2,6-difluorophenyl)-2-({3-[(1-methylethyl)amino]propyl}amino)-7-oxo-7,8-dihydropyrido[2,3-d]pyrimidin-4-yl]-4-methyl-N-1,3-thiazol-2-ylbenzamide], for which the inhibition of neutrophilia result is “statistically significant inhibition”.
On to `Cc1ccc(C(=O)Nc2nccs2)cc1-c1nc(NCCCNC(C)(C)C)nc2c1ccc(=O)n2-c1c(F)cccc1F` [Example 102, 3-[8-(2,6-difluorophenyl)-2-({3-[(1,1-dimethylethyl)amino]propyl}amino)-7-oxo-7,8-dihydropyrido[2,3-d]pyrimidin-4-yl]-4-methyl-N-1,3-thiazol-2-ylbenzamide], for which the inhibition of neutrophilia result is “statistically nonsignificant inhibition”.
For `Cc1ccc(C(=O)Nc2nccs2)cc1-c1nc(NCCNC(C)C)nc2c1ccc(=O)n2-c1c(F)cccc1F` [Example 103, 3-[8-(2,6-difluorophenyl)-2-({2-[(1-methylethyl)amino]ethyl}amino)-7-oxo-7,8-dihydropyrido[2,3-d]pyrimidin-4-yl]-4-methyl-N-1,3-thiazol-2-ylbenzamide] the value was “statistically significant inhibition”.
For `Cc1ccc(C(=O)Nc2nccs2)cc1-c1nc(N(C)CCCN(C)C)nc2c1ccc(=O)n2-c1c(F)cccc1F` [Example 107, 3-{8-(2,6-difluorophenyl)-2-[[3-(dimethylamino)propyl](methyl)amino]-7-oxo-7,8-dihydropyrido[2,3-d]pyrimidin-4-yl}-4-methyl-N-1,3-thiazol-2-ylbenzamide] the value was “statistically significant inhibition”; for `Cc1ccc(C(=O)Nc2nccs2)cc1-c1nc(NCCN(C)C)nc2c1ccc(=O)n2-c1c(F)cccc1F` [Example 109, 3-(8-(2,6-difluorophenyl)-2-{[2-(dimethylamino)ethyl]amino}-7-oxo-7,8-dihydropyrido[2,3-d]pyrimidin-4-yl)-4-methyl-N-1,3-thiazol-2-ylbenzamide], “statistically significant inhibition”; for `Cc1ccc(C(=O)Nc2ccc(F)cc2)cc1-c1nc(NCCN(C)C)nc2c1ccc(=O)n2-c1c(F)cccc1F` [Example 112, 3-(8-(2,6-difluorophenyl)-2-{[2-(dimethylamino)ethyl]amino}-7-oxo-7,8-dihydropyrido[2,3-d]pyrimidin-4-yl)-N-(4-fluorophenyl)-4-methylbenzamide], “statistically nonsignificant inhibition”.
For the molecule `Cc1ccc(C(=O)NC(C)C)cc1-c1nc(NCCN(C)C)nc2c1ccc(=O)n2-c1c(F)cccc1F` [Example 117, 3-(8-(2,6-difluorophenyl)-2-{[2-(dimethylamino)ethyl]amino}-7-oxo-7,8-dihydropyrido[2,3-d]pyrimidin-4-yl)-4-methyl-N-(1-methylethyl)benzamide], the inhibition of neutrophilia entry is on record as “statistically significant inhibition”.
Turning to `CCN(CC)CCCNc1nc(-c2cc(C(=O)NC)ccc2C)c2ccc(=O)n(-c3c(F)cccc3F)c2n1` [Example 119, 3-[2-{[3-(diethylamino)propyl]amino}-8-(2,6-difluorophenyl)-7-oxo-7,8-dihydropyrido[2,3-d]pyrimidin-4-yl]-N,4-dimethylbenzamide], the inhibition of neutrophilia result is reported as “statistically significant inhibition”.
